The structures appear in SMILES notation.

The assay addresses T1, F508delCFTR cell surface expression in CFBE41o-F508delCFTR-HRP cells (Homo sapiens, UniProt P13569, DEL508-508).
T1 construct: fused on or other part: Horseradish peroxidase (HRP) reporter inserted in the fourth exofacial (extracellular) loop of CFTR; expression is doxycycline-inducible
The assay is described as follows: Cell Surface Expression-Horse Radish Peroxidase (CSE-HRP) Assay. The format is cell-based. The following applies: for EC50: CFBE41o-F508delCFTR-HRP cells, 18-24 hours at 33° C., 8-point curve, highest concentration 20 μM; for Maximum % activity (%): maximum at any tested concentration, normalized to on-plate positive control (3 μM). The essentials: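 Correctors incubated 18-24 h at 33 °C on doxycycline-induced (0.5 μg/mL, 72 h) CFBE41o-F508delCFTR-HRP cells, 3-fold series from 20 μM. After DPBS washes, luminol luminescence read; activity expressed relative to DMSO and a 3 μM positive control, EC50 fitted from triplicate plates.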

T1 sequence (P13569 with tags, fused parts or gaps DEL508-508 limits assumed): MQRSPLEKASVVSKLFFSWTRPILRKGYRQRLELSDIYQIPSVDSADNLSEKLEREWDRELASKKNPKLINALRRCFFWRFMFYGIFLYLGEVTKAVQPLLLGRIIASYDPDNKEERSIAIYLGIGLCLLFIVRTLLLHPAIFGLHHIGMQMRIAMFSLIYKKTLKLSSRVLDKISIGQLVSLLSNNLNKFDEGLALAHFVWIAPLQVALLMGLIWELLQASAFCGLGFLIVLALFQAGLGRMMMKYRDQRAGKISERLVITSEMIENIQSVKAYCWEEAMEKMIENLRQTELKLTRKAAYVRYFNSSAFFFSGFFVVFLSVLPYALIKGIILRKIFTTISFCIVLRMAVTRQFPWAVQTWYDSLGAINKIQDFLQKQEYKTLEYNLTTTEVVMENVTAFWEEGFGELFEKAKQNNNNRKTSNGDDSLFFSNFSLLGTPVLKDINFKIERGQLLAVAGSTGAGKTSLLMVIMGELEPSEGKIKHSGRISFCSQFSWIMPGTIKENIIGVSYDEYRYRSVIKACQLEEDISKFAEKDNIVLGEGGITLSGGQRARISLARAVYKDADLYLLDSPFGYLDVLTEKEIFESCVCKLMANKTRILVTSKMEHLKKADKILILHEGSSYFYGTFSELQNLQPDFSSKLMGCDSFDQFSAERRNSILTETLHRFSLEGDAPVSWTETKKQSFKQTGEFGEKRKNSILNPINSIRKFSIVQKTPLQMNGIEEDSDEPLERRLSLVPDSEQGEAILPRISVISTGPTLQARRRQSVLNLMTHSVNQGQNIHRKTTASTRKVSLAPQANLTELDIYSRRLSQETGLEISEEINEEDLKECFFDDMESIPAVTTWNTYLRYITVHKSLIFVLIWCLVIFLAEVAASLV
T1 sequence (P13569 919-1480 limits assumed, stated change not applied): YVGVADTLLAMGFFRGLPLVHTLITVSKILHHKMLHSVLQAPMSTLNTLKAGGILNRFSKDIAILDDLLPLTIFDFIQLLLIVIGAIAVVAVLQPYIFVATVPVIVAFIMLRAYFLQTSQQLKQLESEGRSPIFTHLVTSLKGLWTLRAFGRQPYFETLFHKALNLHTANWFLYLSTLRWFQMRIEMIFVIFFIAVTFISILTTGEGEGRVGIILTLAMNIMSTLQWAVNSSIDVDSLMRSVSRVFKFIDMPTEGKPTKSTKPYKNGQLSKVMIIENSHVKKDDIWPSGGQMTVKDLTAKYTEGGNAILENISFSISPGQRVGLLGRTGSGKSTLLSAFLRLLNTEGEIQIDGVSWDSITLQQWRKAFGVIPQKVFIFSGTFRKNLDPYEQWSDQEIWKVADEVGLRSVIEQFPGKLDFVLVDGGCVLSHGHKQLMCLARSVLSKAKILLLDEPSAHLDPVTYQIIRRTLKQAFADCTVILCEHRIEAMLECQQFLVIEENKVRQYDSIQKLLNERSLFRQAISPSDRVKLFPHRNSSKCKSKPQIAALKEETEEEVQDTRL

In the case of `CC(C)(CO)c1cc2cc(NC(=O)[C@@]3(C)COc4cc5c(cc43)OC(F)(F)O5)c(F)cc2[nH]1` [Example 143, (7R)-2,2-difluoro-N-[6-fluoro-2-(1-hydroxy-2-methylpropan-2-yl)-1H-indol-5-yl]-7-methyl-6,7-dihydro-2H-furo[2,3-f][1,3]benzodioxole-7-carboxamide], a half-maximal response (EC50) required 490 nM and the “Maximum % activity (%)” value is reported as 129%.
The like results for `CCOC(=O)[C@H]1CC[C@H]([C@@H]2C[C@H](NC(=O)[C@@]3(C)COc4cc5c(cc43)OC(F)(F)O5)c3ccc(OC(F)(F)F)cc3O2)CC1` [Example 147, ethyl trans-4-[(2S,4S)-4-{[(7R)-2,2-difluoro-7-methyl-6,7-dihydro-2H-furo[2,3-f][1,3]benzodioxole-7-carbonyl]amino}-7-(trifluoromethoxy)-3,4-dihydro-2H-1-benzopyran-2-yl]cyclohexane-1-carboxylate] were, in that order, 2240 nM and 79%.
As for `CCOC(=O)[C@H]1CC[C@H]([C@H]2C[C@@H](NC(=O)[C@@]3(C)COc4cc5c(cc43)OC(F)(F)O5)c3ccc(OC(F)(F)F)cc3O2)CC1` [Example 148, ethyl trans-4-[(2R,4R)-4-{[(7R)-2,2-difluoro-7-methyl-6,7-dihydro-2H-furo[2,3-f][1,3]benzodioxole-7-carbonyl]amino}-7-(trifluoromethoxy)-3,4-dihydro-2H-1-benzopyran-2-yl]cyclohexane-1-carboxylate], the EC50 (as a rule, the concentration giving half of the maximal effect) was 41 nM and the “Maximum % activity (%)” value is 145%.
The like results for `CCOC(=O)[C@H]1CC[C@H]([C@@H]2C[C@H](NC(=O)[C@@]3(C)COc4cc5c(cc43)OC(F)(F)O5)c3ccc(OC)cc3O2)CC1` [Example 152, ethyl trans-4-[(2S,4S)-4-{[(7R)-2,2-difluoro-7-methyl-6,7-dihydro-2H-furo[2,3-f][1,3]benzodioxole-7-carbonyl]amino}-7-methoxy-3,4-dihydro-2H-1-benzopyran-2-yl]cyclohexane-1-carboxylate] were, in that order, 806 nM and 102%.
Turning to `CCOC(=O)[C@H]1CC[C@H]([C@H]2C[C@@H](NC(=O)[C@@]3(C)COc4cc5c(cc43)OC(F)(F)O5)c3ccc(OC)cc3O2)CC1` [Example 153, ethyl trans-4-[(2R,4R)-4-{[(7R)-2,2-difluoro-7-methyl-6,7-dihydro-2H-furo[2,3-f][1,3]benzodioxole-7-carbonyl]amino}-7-methoxy-3,4-dihydro-2H-1-benzopyran-2-yl]cyclohexane-1-carboxylate], the EC50 is 304 nM and the “Maximum % activity (%)” value is 135%.
`COc1ccc2c(c1)O[C@H]([C@H]1CC[C@H](C(=O)O)CC1)C[C@@H]2NC(=O)[C@@]1(C)COc2cc3c(cc21)OC(F)(F)O3` [Example 154, trans-4-[(2S,4S)-4-{[(7R)-2,2-difluoro-7-methyl-6,7-dihydro-2H-furo[2,3-f][1,3]benzodioxole-7-carbonyl]amino}-7-methoxy-3,4-dihydro-2H-1-benzopyran-2-yl]cyclohexane-1-carboxylic acid]: the EC50 stood at 915 nM and the “Maximum % activity (%)” value is on record as 103%.
The like results for `CCOC(=O)[C@H]1CC[C@H]([C@H]2C[C@@H](NC(=O)[C@@]3(C)COc4cc5c(cc43)OC(F)(F)O5)c3ccc(OC(F)F)cc3O2)CC1` [Example 156, ethyl trans-4-[(2R,4R)-7-(difluoromethoxy)-4-{[(7R)-2,2-difluoro-7-methyl-6,7-dihydro-2H-furo[2,3-f][1,3]benzodioxole-7-carbonyl]amino}-3,4-dihydro-2H-1-benzopyran-2-yl]cyclohexane-1-carboxylate] were, in that order, 90 nM and 142%.
With `CCOC(=O)[C@H]1CC[C@@H]([C@H]2C[C@@H](NC(=O)[C@@]3(C)COc4cc5c(cc43)OC(F)(F)O5)c3ccc(OC(F)(F)F)cc3O2)CC1` [Example 157, ethyl cis-4-[(2R,4R)-4-{[(7R)-2,2-difluoro-7-methyl-6,7-dihydro-2H-furo[2,3-f][1,3]benzodioxole-7-carbonyl]amino}-7-(trifluoromethoxy)-3,4-dihydro-2H-1-benzopyran-2-yl]cyclohexane-1-carboxylate], it took 168 nM to reach a half-maximal effect (EC50) and the “Maximum % activity (%)” value is 117%.
As to `CCOC(=O)[C@H]1CC[C@@H]([C@@H]2C[C@H](NC(=O)[C@@]3(C)COc4cc5c(cc43)OC(F)(F)O5)c3ccc(OC(F)(F)F)cc3O2)CC1` [Example 158, ethyl cis-4-[(2S,4S)-4-{[(7R)-2,2-difluoro-7-methyl-6,7-dihydro-2H-furo[2,3-f][1,3]benzodioxole-7-carbonyl]amino}-7-(trifluoromethoxy)-3,4-dihydro-2H-1-benzopyran-2-yl]cyclohexane-1-carboxylate], a half-maximal effect (EC50) was put at 3670 nM and the “Maximum % activity (%)” value was found to be 111%.
The like results for `CCOC(=O)[C@H]1CC[C@H]([C@@H]2C[C@H](NC(=O)[C@@]3(C)COc4cc5c(cc43)OC(F)(F)O5)c3ccc(OC(F)F)cc3O2)CC1` [Example 159, ethyl trans-4-[(2S,4S)-7-(difluoromethoxy)-4-{[(7R)-2,2-difluoro-7-methyl-6,7-dihydro-2H-furo[2,3-f][1,3]benzodioxole-7-carbonyl]amino}-3,4-dihydro-2H-1-benzopyran-2-yl]cyclohexane-1-carboxylate] were, in that order, 1020 nM and 82%.
Take `C[C@]1(C(=O)N[C@H]2C[C@@H]([C@H]3CC[C@@H](C(=O)O)CC3)Oc3cc(OC(F)(F)F)ccc32)COc2cc3c(cc21)OC(F)(F)O3` [Example 161, cis-4-[(2S,4S)-4-{[(7R)-2,2-difluoro-7-methyl-6,7-dihydro-2H-furo[2,3-f][1,3]benzodioxole-7-carbonyl]amino}-7-(trifluoromethoxy)-3,4-dihydro-2H-1-benzopyran-2-yl]cyclohexane-1-carboxylic acid]: the response was half-maximal at 5090 nM (EC50) and the “Maximum % activity (%)” value was 101%.
Taken in the same sequence, the figures for `C[C@]1(C(=O)N[C@H]2C[C@@H]([C@H]3CC[C@H](C(=O)O)CC3)Oc3cc(OC(F)F)ccc32)COc2cc3c(cc21)OC(F)(F)O3` [Example 163, trans-4-[(2S,4S)-7-(difluoromethoxy)-4-{[(7R)-2,2-difluoro-7-methyl-6,7-dihydro-2H-furo[2,3-f][1,3]benzodioxole-7-carbonyl]amino}-3,4-dihydro-2H-1-benzopyran-2-yl]cyclohexane-1-carboxylic acid] were 810 nM and 75%.
The like results for `CCOC(=O)C1([C@H]2C[C@@H](NC(=O)[C@@]3(C)COc4cc5c(cc43)OC(F)(F)O5)c3ccc(OC(F)(F)F)cc3O2)CC1` [Example 164, ethyl 1-[(2R,4R)-4-{[(7R)-2,2-difluoro-7-methyl-6,7-dihydro-2H-furo[2,3-f][1,3]benzodioxole-7-carbonyl]amino}-7-(trifluoromethoxy)-3,4-dihydro-2H-1-benzopyran-2-yl]cyclopropane-1-carboxylate] were, in that order, 106 nM and 122%.
Taken in the same sequence, the figures for `CCOC(=O)C1([C@@H]2C[C@H](NC(=O)[C@@]3(C)COc4cc5c(cc43)OC(F)(F)O5)c3ccc(OC(F)(F)F)cc3O2)CC1` [Example 165, ethyl 1-[(2S,4S)-4-{[(7R)-2,2-difluoro-7-methyl-6,7-dihydro-2H-furo[2,3-f][1,3]benzodioxole-7-carbonyl]amino}-7-(trifluoromethoxy)-3,4-dihydro-2H-1-benzopyran-2-yl]cyclopropane-1-carboxylate] were 2640 nM and 85%.
Consider `C[C@@]1(C(=O)N[C@@H]2C[C@H]([C@H]3CC[C@H](C(=O)O)CC3)Oc3cc(OC(F)(F)F)ccc32)CCc2cc3c(cc21)OC(F)(F)O3` [Example 169, trans-4-[(2R,4R)-4-{[(5R)-2,2-difluoro-5-methyl-6,7-dihydro-2H,5H-indeno[5,6-d][1,3]dioxole-5-carbonyl]amino}-7-(trifluoromethoxy)-3,4-dihydro-2H-1-benzopyran-2-yl]cyclohexane-1-carboxylic acid], for which the midpoint of the response, the EC50, lay at 1260 nM and the “Maximum % activity (%)” value is on record as 107%.
The like results for `C[C@]1(C(=O)Nc2cc3cc(C4(CO)CCOCC4)n(C[C@@H](O)CO)c3cc2F)COc2cc3c(cc21)OC(F)(F)O3` [Example 170, (7R)—N-{1-[(2R)-2,3-dihydroxypropyl]-6-fluoro-2-[4-(hydroxymethyl)oxan-4-yl]-1H-indol-5-yl}-2,2-difluoro-7-methyl-6,7-dihydro-2H-furo[2,3-f][1,3]benzodioxole-7-carboxamide] were, in that order, 1260 nM and 65%.
The like results for `COc1ccc2c(c1)O[C@@H](c1cnc(CO)cn1)C[C@H]2NC(=O)[C@@]1(C)COc2cc3c(cc21)OC(F)(F)O3` [Example 173, (7R)-2,2-difluoro-N-{(2R,4R)-2-[5-(hydroxymethyl)pyrazin-2-yl]-7-methoxy-3,4-dihydro-2H-1-benzopyran-4-yl}-7-methyl-6,7-dihydro-2H-furo[2,3-f][1,3]benzodioxole-7-carboxamide] were, in that order, 90 nM and 132%.
Taken in the same sequence, the figures for `COc1ccc2c(c1)O[C@@H](c1ccc(Br)nc1)C[C@H]2NC(=O)[C@@]1(C)COc2cc3c(cc21)OC(F)(F)O3` [Example 176, (7R)—N-[(2R,4R)-2-(6-bromopyridin-3-yl)-7-methoxy-3,4-dihydro-2H-1-benzopyran-4-yl]-2,2-difluoro-7-methyl-6,7-dihydro-2H-furo[2,3-f][1,3]benzodioxole-7-carboxamide] were 270 nM and 118%.

For the origin of these results see patent US9840513B2 (AbbVie S.à.r.l., priority 2015, dated 2017).
